Reference: patent publication US20200392158A1, “INHIBITORS OF LEUCINE RICH REPEAT KINASE 2” (GLAXOSMITHKLINE INTELLECTUAL PROPERTY DEVELOPMENT LIMITED, priority 2017, published 2020)

These compounds were tested against T1, LRRK2 kinase in SH-SY5Y cells over-expressing recombinant full length LRRK2 (Homo sapiens, UniProt Q5S007) (assay: Recombinant cellular LRRK2 AlphaScreen assay (LRRK2 Ser935 phosphorylation)). Settings: 60 min.
T1 construct: A BacMam virus expressing full length recombinant LRRK2 was purchased from Invitrogen; host or cells: SH-SY5Y human neuroblastoma cells transduced with BacMam LRRK2 virus
Type: cell-based
Excerpt: b. Recombinant Cellular LRRK2 AlphaScreen Assay
To determine the activity of compounds against LRRK2 kinase in cells, the observed LRRK2 kinase-dependent modulation of LRRK2 Ser 935 phosphorylation (Dzamko et al., 2010, Biochem. J. 430: 405-413) was utilized to develop a quantitative 384 well plate-based immunoassay of LRRK2 Ser935 phosphorylation in the human neuroblastoma cell line SH-SY5Y, engineered to over-express recombinant full length LRRK2 protein.
A BacMam virus expressing full length recombinant LRRK2 was purchased from Invitrogen and amplified by inoculation of SF-9 cells at MOI 0.3 for 4-5 days in Sf-900 III SFM medium supplemented with 3% fetal bovine serum. Infected cell cultures were then centrifuged at 2000 g for 20 minutes, viral supernatant titer determined by anti-gp64 plaque assay and stored at 4° C.
Affinity-purified anti-phospho LRRK2 Ser935 sheep polyclonal antibody (Dzamko et al., 2010, Biochem. J. 430: 405-413) was biotinylated by standard methods (PerkinElmer). Anti-LRRK2 rabbit polyclonal antibody was purchased from Novus Biologicals. AlphaScreen Protein A IgG Kit (including acceptor and donor beads) was purchased from Perkin Elmer.
SH-SY5Y cells were grown in DMEM/F12 medium with 10% dialysed fetal bovine serum and harvested by treatment with 0.5% trypsin-EDTA for 5 minutes at 37° C. followed by centrifugation at 1000 rpm for 4 minutes. The cell pellet was resuspended in Opti-MEM reduced serum media (Invitrogen) at 200,000 cells/ml and mixed with the BacMam LRRK2 virus at M01=50. 50 μl cell solutions were then dispensed to each well of a 384-well plate and incubated at 37° C., 5% CO2 for 24 hours.
Compounds were prepared at 10× final assay concentration as 11 point 1 in 4 serial I dilutions in Opti-MEM reduced serum medium (Invitrogen 31985070) containing 1% DMSO. On the day of assay, 5.5 μl of the compound solutions were transferred from the compound plate to the cell assay plate to achieve a top final assay concentration of 10 uM. DMSO (0.1% final assay concentration) was added to column 6 and 2-(benzyloxy)-5-methyl-4-(1-methyl-1H-pyrazol-4-yl)-N-(pyridin-3-yl)benzamide (2 μM final assay concentration) was added to column 18 to serve as 0% and 100% inhibition controls, respectively.
Cells were incubated at 37° C., 5% CO2 for 60 minutes. The medium was then removed and cells lysed by addition of 20 μl of cell lysis buffer (Cell Signaling Technology) and incubation at 4° C. for 20 minutes. 10 μl of antibody/acceptor bead mix [(1/1000 biotinylated-pS935 LRRK2 antibody, 1/1000 total-LRRK2 antibody, 1/100 Acceptor beads in AlphaScreen detection buffer (25 mM Hepes (pH 7.4), 0.5% Triton X-100, 1 mg/ml Dextran 500 and 0.1% BSA)] was then added to each well and plates incubated for 2 hours at ambient temperature in the dark. 10 μl of donor beads solution (1/33.3 donor beads in AlphaScreen detection buffer) was then added to each well. Following incubation for a further 2 hours at ambient temperature in the dark, plates were read on an EnVision™ plate reader at emission 520-620 nm with excitation 680 nm. Dose response curve data was based on a sigmoidal dose-response model.

T1 sequence (Q5S007 whole entry): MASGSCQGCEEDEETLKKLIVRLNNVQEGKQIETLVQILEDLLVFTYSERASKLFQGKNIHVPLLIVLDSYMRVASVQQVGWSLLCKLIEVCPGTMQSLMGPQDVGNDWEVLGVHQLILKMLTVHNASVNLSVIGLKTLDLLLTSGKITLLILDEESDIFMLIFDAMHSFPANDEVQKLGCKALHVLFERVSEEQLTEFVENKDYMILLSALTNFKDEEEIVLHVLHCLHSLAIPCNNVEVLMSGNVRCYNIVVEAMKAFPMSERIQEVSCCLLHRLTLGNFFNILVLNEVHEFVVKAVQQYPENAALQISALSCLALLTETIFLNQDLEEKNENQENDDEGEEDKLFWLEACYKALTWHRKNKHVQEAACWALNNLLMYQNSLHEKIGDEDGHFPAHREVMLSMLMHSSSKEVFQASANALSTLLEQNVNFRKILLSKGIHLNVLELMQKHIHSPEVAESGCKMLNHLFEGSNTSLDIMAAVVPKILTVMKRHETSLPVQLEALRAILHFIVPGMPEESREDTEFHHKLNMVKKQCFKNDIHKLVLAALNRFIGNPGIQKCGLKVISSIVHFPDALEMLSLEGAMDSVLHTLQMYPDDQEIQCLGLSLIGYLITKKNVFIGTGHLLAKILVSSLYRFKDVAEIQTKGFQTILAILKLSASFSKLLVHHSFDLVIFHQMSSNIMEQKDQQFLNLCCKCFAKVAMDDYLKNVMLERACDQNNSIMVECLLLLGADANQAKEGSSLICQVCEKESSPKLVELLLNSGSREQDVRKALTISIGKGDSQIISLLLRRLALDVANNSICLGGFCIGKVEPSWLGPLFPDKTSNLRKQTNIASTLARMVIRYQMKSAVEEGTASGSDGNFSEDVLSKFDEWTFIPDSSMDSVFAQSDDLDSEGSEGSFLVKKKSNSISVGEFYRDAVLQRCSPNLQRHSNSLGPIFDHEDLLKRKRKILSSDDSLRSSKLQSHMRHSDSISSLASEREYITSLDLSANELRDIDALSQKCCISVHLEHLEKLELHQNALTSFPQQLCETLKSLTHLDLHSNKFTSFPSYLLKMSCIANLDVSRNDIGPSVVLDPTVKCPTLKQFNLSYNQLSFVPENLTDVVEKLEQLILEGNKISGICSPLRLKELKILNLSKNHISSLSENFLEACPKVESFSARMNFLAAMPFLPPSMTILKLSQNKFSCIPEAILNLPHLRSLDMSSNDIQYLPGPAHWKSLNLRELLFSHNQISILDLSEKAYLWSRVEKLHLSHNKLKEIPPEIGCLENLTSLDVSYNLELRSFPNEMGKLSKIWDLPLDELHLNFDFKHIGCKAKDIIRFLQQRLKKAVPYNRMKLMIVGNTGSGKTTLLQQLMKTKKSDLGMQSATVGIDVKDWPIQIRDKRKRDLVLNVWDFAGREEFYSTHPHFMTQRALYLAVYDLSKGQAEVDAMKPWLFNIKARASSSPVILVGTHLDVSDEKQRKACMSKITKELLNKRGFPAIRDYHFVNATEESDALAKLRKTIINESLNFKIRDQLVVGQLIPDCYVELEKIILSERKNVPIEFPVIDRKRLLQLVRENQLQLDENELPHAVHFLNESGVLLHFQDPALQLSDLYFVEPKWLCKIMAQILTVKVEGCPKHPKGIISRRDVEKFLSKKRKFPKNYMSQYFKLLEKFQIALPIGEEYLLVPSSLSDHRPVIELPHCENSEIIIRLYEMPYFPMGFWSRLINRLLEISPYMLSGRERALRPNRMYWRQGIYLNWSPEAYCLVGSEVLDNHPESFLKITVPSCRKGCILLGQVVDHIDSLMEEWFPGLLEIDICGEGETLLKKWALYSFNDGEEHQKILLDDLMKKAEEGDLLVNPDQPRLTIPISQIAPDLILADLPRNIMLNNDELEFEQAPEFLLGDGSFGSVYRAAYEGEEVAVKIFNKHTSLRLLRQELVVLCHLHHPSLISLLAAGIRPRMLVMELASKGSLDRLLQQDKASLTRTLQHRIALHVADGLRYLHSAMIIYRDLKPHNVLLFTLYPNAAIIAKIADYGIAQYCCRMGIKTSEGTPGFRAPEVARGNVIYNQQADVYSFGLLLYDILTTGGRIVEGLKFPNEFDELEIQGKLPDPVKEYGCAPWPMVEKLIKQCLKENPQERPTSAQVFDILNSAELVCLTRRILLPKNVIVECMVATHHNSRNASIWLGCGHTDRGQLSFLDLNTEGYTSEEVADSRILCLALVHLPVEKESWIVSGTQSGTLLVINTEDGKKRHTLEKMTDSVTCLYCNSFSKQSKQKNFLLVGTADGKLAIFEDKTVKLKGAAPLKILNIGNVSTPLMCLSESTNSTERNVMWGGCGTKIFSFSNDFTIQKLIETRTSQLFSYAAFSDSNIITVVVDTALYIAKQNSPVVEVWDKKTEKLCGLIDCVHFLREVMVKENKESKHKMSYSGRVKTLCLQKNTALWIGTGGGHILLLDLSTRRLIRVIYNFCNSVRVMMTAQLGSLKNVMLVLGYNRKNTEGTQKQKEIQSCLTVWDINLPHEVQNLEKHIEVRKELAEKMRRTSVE

IC50, ≤ 100 nM:
Cc1c2c(nn1C1CCOC(C)C1)OCCC(C)Nc1nc(ncc1Cl)N2 (single isomer, unassigned) [E80, 14-chloro-4,11-dimethyl-5-(2-methyloxan-4-yl)-8-oxa-2,5,6,12, 16,17-hexaazatricyclo[11.3.1.0^3,7]heptadeca-1(16),3,6,13(17),14-pentaene]
COC1CNc2cc(ncc2Cl)Nc2c(nn(C3CCOCC3)c2C)OC1 (centres unmarked) [E342, 14-Chloro-10-methoxy-4-methyl-5-(oxan-4-yl)-8-oxa-2,5,6, 12,16-pentaazatricyclo[11.3.1.0^3,7]heptadeca-1(16),3,6,13(17), 14-pentaene]
COC1CNc2nc(ncc2Cl)Nc2c(nn(CCN3CCOCC3)c2C)OC1 (single isomer, unassigned) [E223, 14-Chloro-10-methoxy-4-methyl-5-[2-(morpholin-4-yl)ethyl]-8-oxa-2,5,6,12,16,17-hexaazatricyclo [11.3.1.0^3,7]heptadeca-1(16),3,6,13(17),14-pentaene]
CCOC(=O)C(C)(C)n1nc2c(c1C)Nc1ncc(Cl)c(n1)NC(C)CCO2 (single isomer, unassigned) [E38, Ethyl 2-{14-chloro-4,11-dimethyl-8-oxa-2,5,6,12,16,17-hexaazatricyclo [11.3.1.0^3,7]heptadeca-1(16),3,6,13(17),14-pentaen-5-yl}-2-methylpropanoate]
Cc1c2c(nn1C1CN(C3COC3)CCO1)OCC[C@@H](C)Nc1nc(ncc1Cl)N2 (stereo partly drawn) [E402, (11R)-14-Chloro-4,11-dimethyl-5-[4-(oxetan-3-yl)morpholin-2-yl]-8-oxa-2,5,6,12,16,17-hexaazatricyclo[11.3.1.0^3,7]heptadeca-1(16),3,6,13(17),14-pentaene]
COCCN1CCC(n2nc3c(c2C)Nc2ncc(Cl)c(n2)N[C@H](C)CCO3)C(F)C1 (single isomer, unassigned) [E100]
Cc1c2c(nn1C1CCOCC1)OCCC(C)Oc1nc(ncc1Cl)N2 (single isomer, unassigned) [E330, 14-Chloro-4,11-dimethyl-5-(oxan-4-yl)-8,12-dioxa-2,5,6,16,17-pentaazatricyclo[11.3.1.0^3,7]heptadeca-1(17), 3,6,13,15-pentaene]
Cc1c2c(nn1C1CCOC1)OCCCNc1nc(ncc1Cl)N2 (centres unmarked) [E122, 14-Chloro-4-methyl-5-(oxolan-3-yl)-8-oxa-2,5,6,12,16,17-hexa azatricyclo[11.3.1.0^3,7]heptadeca-1(16),3,6,13(17),14-pentaene]
FC(F)c1c2c(nn1C1CCOCC1)OCCCNc1nc(ncc1C(F)(F)F)N2 [E118, 4-(Difluoromethyl)-5-(oxan-4-yl)-14-(trifluoromethyl)-8-oxa-2,5,6,12,16,17-hexaazatricyclo[11.3.1.0^3,7]heptadeca-1(16),3,6, 13(17),14-pentaene]
Cc1c2c(nn1C1CCC(C)CC1)OCCCNc1nc(ncc1Cl)N2 (single isomer, unassigned) [E257, 14-Chloro-4-methyl-5-(4-methylcyclohexyl)-8-oxa-2,5,6,12,16,17-hexaazatricyclo[11.3.1.0^3,7]heptadeca-1(16),3,6,13 (17),14-pentaene]
Cc1c2c(nn1C1CC(N3CCC(F)(F)C3)C1)OCCC(C)Nc1nc(ncc1Cl)N2 (single isomer, unassigned) [E314, 14-Chloro-5-[3-(3,3-difluoropyrrolidin-1-yl)cyclobutyl]-4,11-dimethyl-8-oxa-2,5,6,12,16,17-hexaazatricyclo [11.3.1.0^3,7]-heptadeca-1(16),3,6,13(17),14-pentaene]
Cc1c2c(nn1C1COCCC1F)OCCCNc1nc(ncc1Cl)N2 (single isomer, unassigned) [E86, 14-chloro-5-[4-fluorooxan-3-yl]-4-methyl-8-oxa-2,5,6,12,16,17-hexaazatricyclo [11.3.1.0^3,7]heptadeca-1(16),3,6,13(17),14-pentaene]
N#Cc1c2c(nn1C1CCOCC1)OCCCNc1nc(ncc1Cl)N2 [E14, 14-Chloro-5-(oxan-4-yl)-8-oxa-2,5,6,12,16,17-hexaazatricyclo[11.3.1.0^3,7]heptadeca-1(16),3,6,13(17),14-pentaene-4-carbonitrile]
COC1CNc2nc(ncc2C(F)(F)F)Nc2c(nn(C3CCCOC3)c2C)OC1 (single isomer, unassigned) [E227, 10-Methoxy-4-methyl-5-(oxan-3-yl)-14-(trifluoromethyl)-8-oxa-2,5,6,12,16,17-hexaazatricyclo [11.3.1.0^3,7] heptadeca-1(17),3,6,13,15-pentaene]
Cc1c2c(nn1C1CCOCC1)OCC(C)CNc1nc(ncc1Cl)N2 (centres unmarked) [E135, 14-Chloro-4,10-dimethyl-5-(oxan-4-yl)-8-oxa-2,5,6,12,16,17-hexaazatricyclo[11.3.1.0^3,7]heptadeca-1(16),3,6,13(17),14-pentaene]
Cc1c2c(nn1C1CCCOC1)OCCCNc1nc(ncc1Br)N2 (single isomer, unassigned) [E288, 14-Bromo-4-methyl-5-(oxan-3-yl)-8-oxa-2,5,6, 12,16,17-hexaazatricyclo[11.3.1.0^3,7]heptadeca-1(16),3,6,13(17), 14-pentaene]
Cc1c2c(nn1CCN1CCOCC1)OCCCNc1nc(ncc1Cl)N2 [E220, 14-Chloro-4-methyl-5-[2-(morpholin-4-yl)ethyl]-8-oxa-2,5,6,12, 16,17-hexaazatricyclo[11.3.1.0^3,7]heptadeca-1(16),3,6,13(17),14-pentaene]
Cc1c2c(nn1C1CCN(C3CCOC3)CC1)OCC[C@@H](C)Nc1nc(ncc1Cl)N2 (single isomer, unassigned) [E383]
Cc1c2c(nn1C1CCOCC1F)OCCCNc1nc(ncc1Cl)N2 (single isomer, unassigned) [E233, 14-Chloro-5-(3-fluorooxan-4-yl)-4-methyl-8-oxa-2,5,6,12,16,17-hexaazatricyclo[11.3.1.0^3,7]heptadeca-1(16),3,6,13 (17),14-pentaene]
COCCN1c2nc(ncc2Cl)Nc2c(nn(C3CCOCC3)c2C)OCC[C@H]1C [E400, (11R)-14-Chloro-12-(2-methoxyethyl)-4,11-dimethyl-5-(oxan-4-yl)-8-oxa-2,5,6,12,16,17-hexaazatricyclo[11.3.1.0^3,7]heptadeca-1(16),3,6,13(17),14-pentaene]
Cc1c2c(nn1C1CCOCC1)OCC(OC(F)F)CNc1nc(ncc1Cl)N2 (single isomer, unassigned) [E284, 14-Chloro-10-(difluoromethoxy)-4-methyl-5-(oxan-4-yl)-8-oxa-2,5,6,12,16,17-hexaazatricyclo[11.3.1.0^3,7] heptadeca-1(16),3,6,13(17),14-pentaene]
Cc1c2c(nn1C1CCC(C(F)(F)F)CC1)OCCCNc1nc(ncc1Cl)N2 (single isomer, unassigned) [E276, 14-Chloro-4-methyl-5-[4-(trifluoromethyl)cyclohexyl]-8-oxa-2,5,6,12,16,17-hexaazatricyclo[11.3.1.0^3,7] heptadeca-1(16),3,6,13(17),14-pentaene]
Cc1c2c(nn1C1(C)CCOCC1)OCC[C@@H](C)Nc1nc(ncc1Cl)N2 [E437, (11R)-14-Chloro-4,11-dimethyl-5-(4-methyloxan-4-yl)-8-oxa-2,5,6,12,16,17-hexaazatricyclo[11.3.1.0^3,7]heptadeca-1(16),3,6,13(17),14-pentaene]
